The nature of the first series: Quantitation of tamoxifen and its metabolites in patient serum by LC-MS/MS. The settings on record: expected values in serum. The protocol:
In the following procedure, tamoxifen and its metabolites are extracted from serum. The serum is added to a filter plate, and then mixed with acetonitrile/IS, which then forms a precipitate. The mixture is then placed on a positive pressure manifold, and the organic fraction is passed through to a collection plate. The plate is lidded, and then placed on the Cohesive system for injection onto MS/MS. The MS is in APCI-positive mode. The quantitation is based upon unique parent-product transitions. Those analytes with similar transitions were separated chromatographically.
A 12-point calibration is used for each analyte. Initially, only one standard is made (Std-12), with a series of dilutions performed to generate the remaining standards. The standard (#12) is to be removed from the −70° C. freezer and thawed. While thawing, label twelve 12×75 mm tubes.
Add 3.0 mL of std-12 to tube 12. From this standard, you will follow the table below to create the standard curve. A standard curve is to be generated with each assay. Place the initial standard back in the −60 to −90° C. freezer.
A Thermo LC/MS/MS system containing the following modules was used for this assay:
The extraction is a protein precipitation, followed by filtration. Analysis and quantitation is then performed by LC/MS/MS.
Norendoxifen is extracted from serum using protein precipitation, followed by filtration. Analysis and quantitation is then performed by LC/MS/MS.
Consider Tamoxifen, for which the “Reference Ranges” value was 12.54 to 233.07 ng/mL.

Still in this series, the particulars now being: human, in vivo.
Turning to 4-Hydroxy Tamoxifen, the “Reference Ranges” value is 0.24 to 5.05 ng/mL. Still for that read-out and setting: the same measure for `CC/C(=C(\c1ccccc1)c1ccc(OCCN(C)C)cc1)c1ccc(O)cc1` [4′-Hydroxy Tamoxifen]: 0.4 to 6.33 ng/mL; for `CC/C(=C(\c1ccccc1)c1ccc(OCCNC)cc1)c1ccccc1` [N-Desmethyl Tamoxifen]: 2.59 to 373.96 ng/mL; for `CC/C(=C(\c1ccc(O)cc1)c1ccc(OCCNC)cc1)c1ccccc1` [N-Desmethyl-4-Hydroxy Tamoxifen]: 0.93 to 43.19 ng/mL. The same measure, in the same setting: the value for `CCC(=C(c1ccccc1)c1ccc(OCCNC)cc1)c1ccc(O)cc1` [N-Desmethyl-4′-Hydroxy Tamoxifen] was 1.17 to 19.95 ng/mL.

Source of the values: patent publication US10830746B2, “Quantitation of Tamoxifen and metabolites thereof by mass spectrometry” (QUEST DIAGNOSTICS INVESTMENTS INCORPORATED, priority 2014, dated 2020).
